# Where two headings read alike, the source gives them in different places.
# How the values were obtained:
# [1] = system: Human Coronavirus OC43 (HCoV-OC43); test: HCoV-OC43 anti-nucleoprotein ELISA antiviral assay, Huh-7 cells; type: cell-based; conditions: OC43 [Huh-7]
# [2] = system: Human coronavirus 229E (HCoV-229E); test: microbe, parasite or virus in culture; type: cell-based
# [3] = system: Enterovirus 68D; test: CPE assay, RD cells; type: cell-based; conditions: Enterovirus 68D [RD]
# [4] = system: Dengue 1 virus (Western Pacific); test: microbe, parasite or virus in culture; type: cell-based; conditions: Dengue 1 virus (Western Pacific) [Huh-7]
# [5] = system: Dengue 2 virus (New Guinea C); test: NanoLuc reporter virus infection assay, Huh-7; type: cell-based; conditions: Dengue 2 virus (New Guinea C) [Huh-7]
# [6] = system: Dengue 2 virus (RL); test: microbe, parasite or virus in culture; type: cell-based
# [7] = system: Dengue 4 virus (MY01); test: microbe, parasite or virus in culture; type: cell-based; conditions: Dengue 4 virus (MY01) [Huh-7]
# [8] = system: Dengue 4 virus (Dakar_HD_34460); test: microbe, parasite or virus in culture; type: cell-based
# [9] = system: Zika virus (PRVABC59); test: NanoLuc reporter virus infection assay, Huh-7; type: cell-based; conditions: Zika virus (PRVABC59) [Huh-7]
# [10] = system: Zika virus (Dakar); test: NanoLuc reporter virus infection assay, Huh-7; type: cell-based; conditions: Zika virus (Dakar) [Huh-7]
# [11] = system: Yellow fever virus (YFS11); test: microbe, parasite or virus in culture; type: cell-based
# [12] = system: Yellow fever virus (17D); test: microbe, parasite or virus in culture; type: cell-based
# [13] = system: Ebola virus (Makona); test: microbe, parasite or virus in culture; type: cell-based
# [14] = system: Ebola virus (Mayinga); test: microbe, parasite or virus in culture; type: cell-based
# [15] = system: Bundibugyo virus; test: microbe, parasite or virus in culture; type: cell-based
# [16] = system: Sudan virus (Gulu); test: microbe, parasite or virus in culture; type: cell-based
# [17] = system: Sudan virus (Yambio); test: microbe, parasite or virus in culture; type: cell-based
# [18] = system: Marburg virus (Ci67); test: microbe, parasite or virus in culture; type: cell-based
# [19] = system: Marburg (Musoke); test: microbe, parasite or virus in culture; type: cell-based, Marburg virus
# [20] = system: Marburg (Kabale); test: microbe, parasite or virus in culture; type: cell-based, Marburg virus
# [21] = system: Marburg (Angola); test: microbe, parasite or virus in culture; type: cell-based, Marburg virus
# [22] = system: Ravn Virus; test: microbe, parasite or virus in culture; type: cell-based
# [23] = system: hepatitis B virus (HBV; AD38 strain); test: Anti-HBV assay (HBsAg), HepG2-NTCP cells; type: cell-based; conditions: HepG2 or PHH cells
# [24] = system: rhinoviruses of serotypes A and B; test: CPE assay, H1 HeLa cells (summary over rhinoviruses); type: cell-based; conditions: Enterovirus, read-out: EC50 range against rhinoviruses of serotypes A and B
# [25] = system: DENV; test: microbe, parasite or virus in culture; type: cell-based; conditions: Dengue virus, Huh-7, read-out: EC50 range against DENV
# [26] = system: HCV genotype 1b and 2a; test: HCV subgenomic replicon assay (summary of both genotypes); type: cell-based; conditions: Hepatitis C virus; genotype 1b and 2a subgenomic replicon; read-out: EC50 against replicons of both HCV genotypes
# [27] = system: SUDV Boniface; type: cell-based, Sudan virus; conditions: read-out: RDV EC50
# [28] = system: Huh-7 cells; conditions: human
# [29] = system: Ebola virus; conditions: read-out: Previously reported activity EC50; cited from earlier work
# [30] = system: Marburg virus (Ci67); conditions: read-out: Previously reported activity EC50; cited from earlier work
# [31] = system: HCV 1b replicon; conditions: Hepatitis C (1b) replicon; read-out: Previously reported activity EC50; cited from earlier work
# [32] = in vitro; conditions: human
# [33] = Cytotoxicity in HBV assay; conditions: human, HepG2-NTCP cells (clone HY12), HBV-infected
# [34] = Compound cytotoxicity by MTS dye reduction; conditions: human, RD cells
# [35] = Compound cytotoxicity by MTS dye reduction; conditions: human, H1 HeLa cells
# [36] = system: H1 HeLa cells; test: Compound cytotoxicity by MTS dye reduction; conditions: H1 HeLa
# [37] = Cell toxicity, CellTiter-Glo, in HBV assay; conditions: human, PHH cells (HBV assay)
# [38] = Cytotoxicity, CellTiter-Glo, 72 h (OC43 protocol); conditions: human, Huh-7 cells
# [39] = Multiplex cytotoxicity (calcein AM) in HCV replicon assay; conditions: human, Huh-7-lunet HCV genotype 1b replicon cells
# [40] = n = 1, read-out: Antiviral activity EC50
# [41] = Dengue virus, Huh-7, read-out: Antiviral activity EC50
# [42] = Zaire ebolavirus, HeLa, read-out: Antiviral activity EC50
# [43] = Sudan ebolavirus, HeLa, n = 1, read-out: Antiviral activity EC50
# [44] = Filoviridae, HeLa, read-out: Antiviral activity EC50
structure (smiles),measurement,setting,value
"CCC(CC)COC(=O)[C@H](C)N[P@](=O)(OC[C@H]1O[C@@](C#N)(c2ccc3c(N)ncnn23)[C@H](O)[C@@H]1O)Oc1ccccc1 [RDV, Remdesivir]",EC50,[1]; Betacoronavirus 1,67 ± 5 nM
same,Selectivity index (SI) = CC50/EC50,[1],282
same,Selectivity index (SI) = CC50/EC50,[2],> 538
same,EC50,"[2]; Human coronavirus 229E, H1-HeLa, read-out: Antiviral activity EC50",93 ± 53 nM
same,Selectivity index (SI) = CC50/EC50,[3],56
same,EC50,[3]; [40],50 nM
same,Selectivity index (SI) = CC50/EC50,[4],159
same,EC50,[4]; [40],210 nM
same,Selectivity index (SI) = CC50/EC50,[5],145
same,EC50,[5]; [40],230 nM
same,Selectivity index (SI) = CC50/EC50,[6],115
same,EC50,[6]; [41],290 ± 70 nM
same,Selectivity index (SI) = CC50/EC50,[7],186
same,EC50,[7]; [40],180 nM
same,Selectivity index (SI) = CC50/EC50,[8],176
same,EC50,[8]; [41],190 ± 50 nM
same,Selectivity index (SI) = CC50/EC50,[9],128
same,EC50,[9]; [40],260 nM
same,Selectivity index (SI) = CC50/EC50,[10],90
same,EC50,[10]; [40],370 nM
same,Selectivity index (SI) = CC50/EC50,[11],32
same,EC50,"[11]; Yellow fever virus, Huh-7, n = 1, read-out: Antiviral activity EC50",1060 nM
same,Selectivity index (SI) = CC50/EC50,[12],186
same,EC50,"[12]; Yellow fever virus, Huh-7, read-out: Antiviral activity EC50",180 ± 30 nM
same,Selectivity index (SI) = CC50/EC50,[13],> 32
same,EC50,[13]; [42],78 ± 4 nM
same,Selectivity index (SI) = CC50/EC50,[14],> 18
same,EC50,[14]; [42],136 ± 17 nM
same,Selectivity index (SI) = CC50/EC50,[15],> 53
same,EC50,"[15]; Bundibugyo virus, HeLa, read-out: Antiviral activity EC50",190 ± 20 nM
same,Selectivity index (SI) = CC50/EC50,[16],> 192
same,EC50,[16]; [43],60 nM
same,Selectivity index (SI) = CC50/EC50,[17],> 19
same,EC50,[17]; [43],130 nM
same,Selectivity index (SI) = CC50/EC50,[18],> 83
same,EC50,[18]; [44],30 ± 2 nM
same,Selectivity index (SI) = CC50/EC50,[19],> 63
same,EC50,[19]; [44],40 ± 4 nM
same,Selectivity index (SI) = CC50/EC50,[20],> 63
same,EC50,[20]; [44],40 ± 2 nM
same,Selectivity index (SI) = CC50/EC50,[21],> 56
same,EC50,[21]; [44],45 ± 30 nM
same,Selectivity index (SI) = CC50/EC50,[22],> 37
same,EC50,[22]; [44],68 ± 10 nM
same,selectivity index of RDV against HBV,[23],~1
same,EC50,[24],385 to 750 nM
same,EC50,[25],120 to 230 nM
same,EC50,[26],72 to 89 nM
same,EC50,[27],212 nM
same,concentration at which cytotoxicity was observed,[28],approximately 4 µM
same,EC50,[29],3 to 140 nM
same,EC50,[30],10 to 20 nM
same,EC50,[31],57 nM
same,CC50 at 48 h,[32],> 2500 nM
same,CC50,[32]; RDV CC50 (SUDV assay),> 2500 nM
same,CC50 at 5 days,[33],7400 nM
same,CC50,[34]; listed as Enterovirus 68D,2820 nM
same,CC50,[34]; listed as Enterovirus 71,3310 nM
same,CC50,[35],> 10000 nM
same,CC50,[36]; listed as Rhinovirus 14,> 10000 nM
same,CC50,[36]; listed as Rhinovirus 16,> 10000 nM
same,CC50,[37],> 1000 nM
same,CC50 at 72 h,[38],18900 ± 1800 nM
same,CC50,[39],> 20000 nM

# From paper PMC9950143 (Scientific Reports, 2023)
